Test system: AMPK
Experiment: EC50 data of compounds of the disclosure (Table A; AMPK agonists)
Type: biochemical
Conditions: Table A '>10 μM'; cells list compound numbers

Row | Structure (SMILES) | EC50
1 | CCONC(=O)c1c[nH]c2cc(Cl)c(-c3ccc(C#N)cc3OC)cc12 [compound 1097] | > 10 µM
2 | CONC(=O)c1c[nH]c2cc(Cl)c(-c3ccc(N(C)CC4CCC4)nc3OC)cc12 [compound 1054] | > 10 µM
3 | CONC(=O)c1c[nH]c2cc(Cl)c(-c3ccc(N4CCC(C)CC4)nc3OC)cc12 [compound 1049] | > 10 µM
4 | CONC(=O)c1c[nH]c2cc(Cl)c(-c3ccc(N(C)CCCN(C)C)nc3OC)cc12 [compound 1064] | > 10 µM
5 | CCONC(=O)c1c[nH]c2cc(Cl)c(-c3ccc(N(CC)CC)nc3OC)cc12 [compound 1075] | > 10 µM
6 | CCOc1nc(N(C)C)ccc1-c1cc2c(C(=O)NOC)c[nH]c2cc1Cl [compound 1020, 6-chloro-5-(6-(dimethylamino)-2-ethoxypyridin-3-yl)-N-methoxy-1H-indole-3-carboxamide] | > 10 µM
7 | CONC(=O)c1c[nH]c2cc(Cl)c(-c3ccc(N(C)C)nc3C(F)(F)F)cc12 [compound 1021, 6-chloro-5-(6-(dimethylamino)-2-(trifluoromethyl)pyridin-3-yl)-N-methoxy-1H-indole-3-carboxamide] | > 10 µM
8 | COCCN(C)c1ccc(-c2cc3c(C(=O)NOC)c[nH]c3cc2Cl)c(OC)n1 [compound 1051] | > 10 µM
9 | CCN(CC)c1ccc(-c2cc3c(C(=O)NOC)c[nH]c3cc2Cl)c(OC)n1 [compound 1074] | > 10 µM
10 | COc1nc(N(C)C)ccc1-c1cc2c(C(=O)NOCCN(C)C)c[nH]c2cc1Cl [compound 1060] | > 10 µM
11 | CONC(=O)c1c[nH]c2cc(Cl)c(-c3ccc(N4CC5(CCC5)C4)nc3OC)cc12 [compound 1050] | > 10 µM
12 | CCONC(=O)c1c[nH]c2cc(Cl)c(-c3ccc(C4(O)CCC4)nc3)cc12 [compound 1099] | > 10 µM
13 | CCONC(=O)c1c[nH]c2cc(Cl)c(-c3ccc(N(C)C)nc3OC)nc12 [compound 1090] | > 10 µM
14 | CONC(=O)c1c[nH]c2cc(Cl)c(-c3ccc(N4CCC(F)(F)CC4)nc3OC)cc12 [compound 1058] | > 10 µM
15 | CONC(=O)c1c[nH]c2cc(Cl)c(-c3ccc(N(C)CCOC(C)C)nc3OC)cc12 [compound 1052] | > 10 µM

Results, then the molecule that gave them:

Row | EC50 | Structure (SMILES)
16 | > 10 µM | COc1nc(N(C)C)ccc1-c1cc2c(C(=O)NOc3ccccc3)c[nH]c2cc1Cl [compound 1012, 6-chloro-5-(6-(dimethylamino)-2-methoxypyridin-3-yl)-N-phenoxy-1H-indole-3-carboxamide]
17 | > 10 µM | CONC(=O)c1c[nH]c2cc(Cl)c(-c3ccc(N(C)C)nc3O)cc12 [compound 1041]
18 | > 10 µM | CONS(=O)(=O)c1c[nH]c2cc(Cl)c(-c3ccc(C4CCCCO4)cc3)cc12 (stereo not shown) [compound 1109, 6-chloro-N-methoxy-5-(4-(tetrahydro-2H-pyran-2-yl)phenyl)-1H-indole-3-sulfonamide]
19 | > 10 µM | CCc1cc(N(C)C)ccc1-c1cc2c(C(=O)NOC)c[nH]c2cc1Cl [compound 1100]
20 | > 10 µM | CONS(=O)(=O)c1c[nH]c2cc(Cl)c(-c3ccc(-c4ccccc4)cc3)cc12 [compound 1110, 5-([1,1′-biphenyl]-4-yl)-6-chloro-N-methoxy-1H-indole-3-sulfonamide]
21 | > 10 µM | CCONC(=O)c1c[nH]c2cc(Cl)c(-c3ccc(C4(CO)CC4)nc3)cc12 [compound 1101]
22 | > 10 µM | CONS(=O)(=O)c1c[nH]c2cc(Cl)c(-c3ccc(N(C)C)nc3OC)cc12 [compound 1028, 6-chloro-5-(6-(dimethylamino)-2-methoxypyridin-3-yl)-N-methoxy-1H-indole-3-sulfonamide]

Same assay, conditions: Table A column head '<100 nM'; cells list compound numbers

Row | EC50 | Structure (SMILES)
23 | < 0.1 µM | CONC(=O)c1c[nH]c2cc(F)c(-c3ccc(C4CCCCO4)cc3)c(F)c12 (stereo not shown) [compound 1007, 4,6-difluoro-N-methoxy-5-(4-(tetrahydro-2H-pyran-2-yl)phenyl)-1H-indole-3-carboxamide]
24 | < 0.1 µM | CONC(=O)c1c[nH]c2cc(Cl)c(-c3ccc(N(C)C)nc3OC)cc12 [compound 1003, 6-chloro-5-(6-(dimethylamino)-2-methoxypyridin-3-yl)-N-methoxy-1H-indole-3-carboxamide]

Test system: not listed separately
Experiment: Blood Brain Barrier (BBB) data, brain/plasma ratio (Table B)
Type: in vivo
Conditions: brain and plasma; calculated at a 3 hr time point; Table B column heads <0.1, 0.1-1, >1; cells list compound numbers
Method: Blood Brain Barrier (BBB) data was evaluated for compounds of the disclosure and the values are shown in Table B. Brain/plasma ratio was calculated at a 3 hr time point).

Row | Structure (SMILES) | Kp at 3 h
25 | COc1nc(N(C)C)ccc1-c1cc2c(C(=O)NO)c[nH]c2cc1Cl [compound 1001, 6-chloro-5-(6-(dimethylamino)-2-methoxypyridin-3-yl)-N-hydroxy-1H-indole-3-carboxamide] | < 0.1
26 | COCCONC(=O)c1c[nH]c2cc(Cl)c(-c3ccc(N(C)C)nc3OC)cc12 [compound 1011, 6-chloro-5-(6-(dimethylamino)-2-methoxypyridin-3-yl)-N-(2-methoxyethoxy)-1H-indole-3-carboxamide] | 0.1 to 1
27 | COc1nc(N(C)C)ccc1-c1cc2c(C(=O)NOCC3CC3)c[nH]c2cc1Cl [compound 1015, 6-chloro-N-(cyclopropylmethoxy)-5-(6-(dimethylamino)-2-methoxypyridin-3-yl)-1H-indole-3-carboxamide] | 0.1 to 1
28 | CCONC(=O)c1c[nH]c2cc(Cl)c(-c3ccc(N(C)C)nc3OC)cc12 [compound 1009, 6-chloro-5-(6-(dimethylamino)-2-methoxypyridin-3-yl)-N-ethoxy-1H-indole-3-carboxamide] | 0.1 to 1
29 | CCONC(=O)C(=O)c1c[nH]c2cc(Cl)c(-c3ccc(N(C)C)nc3OC)cc12 [compound 1081] | < 0.1
30 | OCC1(c2ccc(-c3cc4c(-c5nnn[nH]5)c[nH]c4cc3Cl)s2)CC1 [compound 1084] | < 0.1

Other lines, results leading:

Row | Kp at 3 h | Structure (SMILES)
31 | < 0.1 | CONC(=O)C(=O)c1c[nH]c2cc(Cl)c(-c3ccc(N(C)C)nc3OC)cc12 [compound 1077, 2-(6-chloro-5-(6-(dimethylamino)-2-methoxypyridin-3-yl)-1H-indol-3-yl)-N-methoxy-2-oxoacetamide]
32 | > 1 | CONC(=O)c1c[nH]c2cc(Cl)c(-c3ccc(N(C)C)nc3OC)cc12 [compound 1003, 6-chloro-5-(6-(dimethylamino)-2-methoxypyridin-3-yl)-N-methoxy-1H-indole-3-carboxamide]
33 | < 0.1 | CS(=O)(=O)NC(=O)c1c[nH]c2cc(Cl)c(-c3ccc(-c4ccccc4)cc3)cc12 [compound 1112]
34 | < 0.1 | COCCONC(=O)c1c[nH]c2cc(Cl)c(-c3ccc(C4(O)CCC4)cc3)cc12 [compound 1045]
